Counter-ions that a name gives are not always drawn. Like-named read-outs stand apart in the source and are kept apart here.
Columns and labels:
[1] = in vivo; cited from earlier work
[2] = test system: platelet aggregation induced by PAF; test: Platelet aggregation rate induced by PAF in platelet-rich plasma of rabbits after 7 days of administration; assay type: in vivo, Japanese large-ear white rabbits; settings: 5.0 mg/kg once daily for 7 days; for Platelet aggregation rate 1 min / Platelet aggregation rate 5 min / Maximum platelet aggregation rate (MAX): PRP, x ± s, n = 8; for Platelet aggregation rate 1 min: 1 min after addition of 10 μL PAF; for Platelet aggregation rate 5 min: 5 min after addition of 10 μL PAF; for Maximum platelet aggregation rate (MAX): after addition of PAF; for inhibition at 5 mg/kg: Oryctolagus cuniculus, Platelet, 168 h
Procedure: (§1) All groups were administered with a clinically used route and dosage for 7 days continuously.
After 7 days of administration, 10.5 ml of blood was taken from the heart of each animal, wherein 1.5 ml of […] was used for taking serum and the rest 9 ml of […] was subjected to 3.8% sodium citrate at 1:9 for anticoagulation, centrifuging for 10 minutes at 800 r/min, and taking the supernatant to obtain platelet-rich plasma (PRP), wherein 100 μl of the PRP was taken for electron microscope examination, and the rest of the PRP was used for detecting of the platelet aggregation rate; the remaining portion was centrifuged for 15 min at a speed of 3000 r/min, and platelet-depleted plasma (PPP) was obtained. PPP was used to adjust the number of platelet in PRP, to be at 360×10^9/L. The platelet aggregation rate was recorded at 1 min, 5 min of addition of 10 μL of PAF inducer and the maximum platelet aggregation rate was recorded after the addition of PAR

platelets = test: Scanning electron microscopy study of platelet morphology after addition of PAF; assay type: in vivo, Japanese large-ear white rabbits; settings: rabbits, 5.0 mg/kg once daily for 7 days; PRP after addition of PAF, 100 platelets observed
Procedure: as §1
The 100 μL of PRP was placed in a silicification EP tube, and 1 μL of PAF was added to induce aggregation of platelets for 15 minutes, the PRP was then placed on a copper mesh sample support laid with a Formar membrane, incubating at 37° C. for 10 min, washing with ultrapure water, fixing with 3% glutaraldehyde for 5 minutes, rewashing with ultrapure water. After the sample on the copper mesh was naturally dried, a layer of 20 nm gold film was plated on the surface of the sample, and the cell morphology was studied with an electron microscope S-3000N. 100 of platelets were observed and calculated the ratio of each type of platelet. The types of platelet under the electron microscope includes: (1) Circle type appears circular or oval, with small size, compact center, large core and low and narrow transparent periphery zone. (2) Tree like type has a single or a plurality of elongated or sheet-shaped sometimes branched foot protrudes from the dense center. (3) Flat type has a dense core in the center and a wide transparent peripheral zone which has a smooth periphery or small bulges. (4) Aggregated-type is usually composed of several to dozens of platelets, with different sizes of the aggregates, wherein the platelets are mutually connected, some of the platelets are integrally fused into a whole, and the foot processes of the peripheral part are prominent.

[3] = PLATO study, cited from earlier work
[4] = cited from earlier work
[5] = PAF-induced, relative to Saline group

SMILES	Occurrence rate of common side effects (digestive tract symptoms and rash) [1]	Platelet aggregation inhibition rate [2, 5] [%]	Platelet aggregation rate 1 min [2]	Platelet aggregation rate 5 min [2]	Types of morphology: Circle (platelets) [%]	Types of morphology: Flat (platelets) [%]	Types of morphology: Tree like (platelets) [%]	Maximum platelet aggregation rate (MAX) [2]	inhibition at 5 mg/kg [2, 5] [%]	Occurrence rate of interventricular interval ([3]; acute stage) [%]	Occurrence rate of interventricular interval ([3]; after one month) [%]	Severe bleeding rate ([4]; Clopidogrel-treated patients) [%]	Common side effects: abdominal pain ([4]; clinical trial (CAPRIE)) [%]	Common side effects: diarrhea ([4]; clinical trial (CAPRIE)) [%]	Common side effects: digestive tract hemorrhage ([4]; clinical trial (CAPRIE)) [%]	Common side effects: dyspepsia ([4]; clinical trial (CAPRIE)) [%]	Common side effects: intracranial hemorrhage ([4]; clinical trial (CAPRIE)) [%]	Common side effects: rash ([4]; clinical trial (CAPRIE)) [%]	Common side effects: serious granulocyte reduction ([4]; clinical trial (CAPRIE)) [%]
Clc1ccccc1CN1CCc2sccc2C1 [Ticlopidine]	about 10%																		
CC1C(=O)OC2C(O)C34C5CC(C(C)(C)C)C36C(OC(=O)C6O)OC4(C(=O)O5)C12O (centres unmarked) [Ginkgolide B]		44.66	21.36 ± 4.15	33.54 ± 5.48	31.6 ± 6.4	46.1 ± 8.3	15.8 ± 6.8												
CCCSc1nc(N[C@@H]2C[C@H]2c2ccc(F)c(F)c2)c2nnn([C@@H]3C[C@H](OCCO)[C@@H](O)[C@H]3O)c2n1 [Ticagrelor, (1S,2S,3R,5S)-3-[7-[(1R,2S)-2-(3,4-Difluorophenyl)cycloprolamino]-5-(propylsulfanyl)-3H-[1,2,3]triazolo [4,5-d]pyrimidin-3-yl]-5-(2-hydroxyethoxy) cyclopenane-1,2-diol]			34.21 ± 5.75	60.50 ± 9.24	6.2 ± 7.5	33.6 ± 10.7	21.4 ± 9.4	67.74 ± 9.36	3.53	60	2.2								
COC(=O)[C@H](c1ccccc1Cl)N1CCc2sccc2C1 [Clopidogrel, (S)-alpha-(2-chlorphenyl)-6,7-dihydrothieno [3,2-c]pyridine-5-(4H)acetate hydrogen sulfate]			35.27 ± 6.08	53.73 ± 8.46	7.7 ± 7.8	30.7 ± 13.6	24.6 ± 8.8	60.96 ± 9.50	13.2			1.4	6	5	2	5	0.4	4	0.04
CC(=O)Oc1cc2c(s1)CCN(C(C(=O)C1CC1)c1ccccc1F)C2 (centres unmarked) [Prasugrel]			37.14 ± 8.59	55.56 ± 7.53	9.9 ± 7.6	25.4 ± 8.7	19.6 ± 6.8	63.12 ± 5.47	10.1										
